In ChEMBL document CHEMBL1154911, “Structure and biosynthesis of amphidinol 17, a hemolytic compound from Amphidinium carterae” (J Nat Prod, 2010):
Active and inactive are the calls of the source. The rule behind the calls is not given here.

Key:
[1] = Toxicity in human RBC assessed as hemolytic activity after 24 hrs by microtiter plate assay; format: cell-based, Erythrocyte; conditions: human red blood cells (RBC)
[2] = test system: Aspergillus niger; assay: Antifungal activity against Aspergillus niger ATCC 16404 by disk diffusion method; format: functional, organism-based
[3] = test system: Kluyveromyces marxianus; assay: Antifungal activity against Candida kefyr ATCC 2512 by disk diffusion method; format: functional, organism-based

**Q.** With `C=CCC/C=C/C=C/C=C/CC/C=C/[C@@H](O)[C@H](O)C1O[C@@H]([C@H](O)[C@H](O)C(=C)CC[C@@H](O)C2C[C@@H](O)[C@@H](O)[C@H]([C@@H](O)[C@H](O)/C=C(\C)CC[C@H](O)C[C@H](O)[C@H](O)[C@@H](C)C[C@H](O)C(O)C(C)CCC(O)CCCC(O)CCCCCOS(=O)(=O)O)O2)C[C@@H](O)[C@H]1O` (stereo partly drawn) [AMPHIDINOL 17] as the molecule, how does the EC50 at 24 h [1] read?
**A.** 4.9 µM

**Q.** What about the Activity [2] of the same molecule?
**A.** inactive

**Q.** What about the Activity [3] of the same molecule?
**A.** inactive
